# Measured values as given in patent US20250099634A1, “METHOD OF TREATING CANCER” (Novartis AG, priority 2023, published 2025).
# What was measured:
# Format in all cases: in vivo, human
# [1] = NETTER-2 worst post-baseline biochemistry abnormalities based on CTC grades (Safety Set); settings: randomized treatment period
# From the text: The laboratory assessments require that blood samples for hematology and blood chemistry, and a urine sample for urinalysis are taken. Laboratory assessments will be performed at the investigational site.
# Blood tests performed 4 weeks after any treatment cannot serve as baseline values for the next treatment.
# All laboratory data will be listed by treatment group, subject, and visit/time and if normal ranges are available abnormalities will be flagged. Summary statistics will be provided by treatment and visit/time. Shift tables using the low/normal/high/(low and high) classification will be used to compare baseline to the worst on-treatment value.
# Grading of laboratory values will be assigned programmatically as per NCI Common Terminology Criteria for Adverse Events (CTCAE) version 5.0 or current version. The calculation of CTCAE grades will be based on the observed laboratory values only, clinical assessments will not be taken into account.
# The following summaries will be generated separately for hematology, and biochemistry tests: • 1. Listing of all laboratory data with values flagged to show the corresponding CTCAE grades if applicable and the classifications relative to the laboratory normal ranges • 2. For laboratory tests where grades are defined by CTCAE, • 3. Worst post-baseline CTCAE grade (regardless of the baseline status). Each subject will be counted only once for the worst grade observed post-baseline. • 4. Shift tables using CTCAE grades to compare baseline to the worst on-treatment value • 5. For laboratory tests where grades are not defined by CTCAE, • 6. Shift tables using the low/normal/high/(low and high) classification to compare baseline to the worst on-treatment value.
# [2] = NETTER-2 deaths (Safety Set)
# [3] = NETTER-2 subject disposition: discontinuation of randomized treatment phase (Full Analysis Set)
# From the text: The discontinuation of either study treatments in both arms (Lutathera or octreotide long-acting) is not a reason for patient's withdrawal either from the clinical/tumor assessments until tumor progression, or for early study termination. However, in case of a patient's withdrawal from the clinical/tumor assessments or early study termination (based on either the patient's or the Investigator's decision), patients will undergo all exams scheduled for the End of Treatment (EOT) visit.
# The Full Analysis Set (FAS) comprises all subjects to whom study treatment has been assigned by randomization. According to the intent to treat principle, subjects will be analyzed according to the treatment and strata they have been assigned to during the randomization procedure.
# [4] = All grades (CTCAE v5.0), Safety Set
# [5] = Grade 3/4 (CTCAE v5.0), Safety Set
smiles,measurement,setting,value
"C[C@@H](O)[C@@H]1NC(=O)[C@H](CCCCN)NC(=O)[C@@H](Cc2c[nH]c3ccccc23)NC(=O)[C@H](Cc2ccccc2)NC(=O)[C@@H](NC(=O)[C@H](N)Cc2ccccc2)CSSC[C@@H](C(=O)N[C@H](CO)[C@@H](C)O)NC1=O [Octreotide LAR, octreotide]",Worst post-baseline abnormality: Alkaline Phosphatase (U/L)-Increase,[1]; [4],40 (54.8) n (%)
same,Worst post-baseline abnormality: Aspartate Aminotransferase (U/L)-Increase,[1]; [4],40 (54.8) n (%)
same,Worst post-baseline abnormality: Bilirubin (umol/L)-Increase,[1]; [4],17 (23.3) n (%)
same,Worst post-baseline abnormality: Calcium Corrected (mmol/L)-Increase,[1]; [4],8 (11.0) n (%)
same,Worst post-baseline abnormality: Creatinine (umol/L)-Increase,[1]; [4],15 (20.5) n (%)
same,Worst post-baseline abnormality: Potassium (mmol/L)-Decrease,[1]; [4],10 (13.7) n (%)
same,Worst post-baseline abnormality: Potassium (mmol/L)-Increase,[1]; [4],16 (21.9) n (%)
same,Worst post-baseline abnormality: Sodium (mmol/L)-Decrease,[1]; [4],12 (16.4) n (%)
same,Worst post-baseline abnormality: Sodium (mmol/L)-Increase,[1]; [4],6 (8.2) n (%)
same,Worst post-baseline abnormality: Alanine Aminotransferase (U/L)-Increase,[1]; [5],3 (4.1) n (%)
same,Worst post-baseline abnormality: Albumin (g/L)-Decrease,[1]; [5],1 (1.4) n (%)
same,Worst post-baseline abnormality: Alkaline Phosphatase (U/L)-Increase,[1]; [5],3 (4.1) n (%)
same,Worst post-baseline abnormality: Aspartate Aminotransferase (U/L)-Increase,[1]; [5],5 (6.8) n (%)
same,Worst post-baseline abnormality: Bilirubin (umol/L)-Increase,[1]; [5],4 (5.5) n (%)
same,Worst post-baseline abnormality: Calcium Corrected (mmol/L)-Increase,[1]; [5],1 (1.4) n (%)
same,Worst post-baseline abnormality: Creatinine (umol/L)-Increase,[1]; [5],1 (1.4) n (%)
same,Worst post-baseline abnormality: Potassium (mmol/L)-Decrease,[1]; [5],2 (2.7) n (%)
same,Worst post-baseline abnormality: Potassium (mmol/L)-Increase,[1]; [5],3 (4.1) n (%)
same,Worst post-baseline abnormality: Sodium (mmol/L)-Decrease,[1]; [5],1 (1.4) n (%)
same,Worst post-baseline abnormality: Sodium (mmol/L)-Increase,[1]; [5],0 n (%)
same,Grade 3/4 biochemical lab abnormality: GGT increase,[1],28.8%
same,Grade 3/4 biochemical lab abnormality: aspartate aminotransferase increase,[1],6.8%
same,Grade 3/4 biochemical lab abnormality: bilirubin increase,[1],5.5%
same,Number of Subjects who Died (Overall),[2]; Safety Set,14 (19.2) n (%)
same,"Number of Subjects who Died (Overall), primary reason Adverse Event",[2]; Safety Set,1 (1.4) n (%)
same,"Number of Subjects who Died on-treatment in cross-over period (within 30 days of last dose), primary reason Disease under Study",[2]; Safety Set,1 (1.4) n (%)
same,"Number of Subjects who Died on-treatment in randomized treatment period (within 30 days of last dose), primary reason Disease under Study",[2]; Safety Set,4 (5.5) n (%)
same,Number of subjects who died in the post-treatment follow up period,[2]; Safety Set,9 (12.3) n (%)
same,"Number of subjects who died in the post-treatment follow up period, primary reason Adverse Event",[2]; Safety Set,1 (1.4) n (%)
same,"Number of subjects who died in the post-treatment follow up period, primary reason Disease under Study",[2]; Safety Set,8 (11.0) n (%)
same,cause of death: adverse event,[2]; during the study,1.4%
same,subjects died during the study,[2]; during the study,19.2%
same,subjects died within 30 days after the last dose,[2]; randomized treatment period,5.5%
same,Reason for End of Randomized Treatment Phase: Adverse Event,[3]; Full Analysis Set,1 (1.3) n (%)
same,Reason for End of Randomized Treatment Phase: Death,[3]; Full Analysis Set,4 (5.3) n (%)
same,Reason for End of Randomized Treatment Phase: Progressive Disease,[3]; Full Analysis Set,44 (58.7) n (%)
same,Treatment discontinuation due to adverse event,[3]; randomized period,1.3%
same,discontinuation for progressive disease,[3]; randomized period,58.7%
